As a reminder, the Kd is the concentration at which binding is half-saturated.

Residues, ends and D or L forms follow the SMILES beside them.

The target in the first test is T1, CCSP-2 (Homo sapiens, UniProt Q5GFL6).
T1 construct: His tag; made in house; host or cells: CCSP-2-overexpressing HeLa cell line (provided by Case Western Reserve University); the secreted protein was captured from the conditioned medium on Ni-NTA agarose
T1 sequence (Q5GFL6 24-755): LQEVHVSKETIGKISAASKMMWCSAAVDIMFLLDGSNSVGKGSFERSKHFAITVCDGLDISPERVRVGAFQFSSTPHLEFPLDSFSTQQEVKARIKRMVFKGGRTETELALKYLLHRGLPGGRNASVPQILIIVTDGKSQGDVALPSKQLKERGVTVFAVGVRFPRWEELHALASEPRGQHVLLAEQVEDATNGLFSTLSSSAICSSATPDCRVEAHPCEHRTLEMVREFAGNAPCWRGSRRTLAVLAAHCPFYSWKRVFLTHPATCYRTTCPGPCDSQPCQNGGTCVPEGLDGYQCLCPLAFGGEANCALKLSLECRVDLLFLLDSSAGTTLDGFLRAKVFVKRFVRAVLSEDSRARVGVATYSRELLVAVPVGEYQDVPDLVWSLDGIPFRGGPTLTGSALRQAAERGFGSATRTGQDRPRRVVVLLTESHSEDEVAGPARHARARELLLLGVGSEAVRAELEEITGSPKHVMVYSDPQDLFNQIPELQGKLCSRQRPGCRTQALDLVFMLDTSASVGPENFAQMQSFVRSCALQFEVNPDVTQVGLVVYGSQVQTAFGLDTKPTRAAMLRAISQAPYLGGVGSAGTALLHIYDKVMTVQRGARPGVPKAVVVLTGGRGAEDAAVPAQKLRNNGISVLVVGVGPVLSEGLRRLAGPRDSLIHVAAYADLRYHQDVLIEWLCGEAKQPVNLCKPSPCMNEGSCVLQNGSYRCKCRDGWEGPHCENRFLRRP
The test is described as follows: Phage display biopanning on purified CCSP-2 and sequencing of selected clones. It counts as binding. Particulars: after 4 rounds of panning on CCSP-2.
For NTGSPYE [MSJ1], the “빈도 (frequency among the 56 sequences, percent)” value is 16.1%.

In the case of WWNPLRP [MSJ10], the “빈도 (frequency among the 56 sequences, percent)” value was determined as 12.5%.

Another test has as its target T2, CCSP-2 단백질 (Homo sapiens, UniProt Q5GFL6).
T2 sequence (Q5GFL6 24-755): T1 sequence (Q5GFL6 24-755)
The test is described as follows: Fluorescence correlation spectroscopy (FCS), dissociation constant with CCSP-2 protein. It counts as binding. Particulars: (peptide)-(GGGSK)-FITC-NH2 conjugate; CCSP-2 0-300 uM; Fig. 5; read-out: 해리상수 (Dissociation constant, Kd).
For `N=C(N)NCCC[C@H](NC(=O)[C@H](Cc1ccccc1)NC(=O)[C@H](CCCCN)NC(=O)[C@H](CO)NC(=O)[C@H](Cc1ccccc1)NC(=O)[C@@H](N)CCC(=O)O)C(=O)N[C@@H](CO)C(=O)O` [MSJ2, EFSKFRS] (H-EFSKFRS-OH), the dissociation constant (Kd) came out at 55 µM.

On to `CSCC[C@H](N)C(=O)N[C@@H](CO)C(=O)N[C@H](C(=O)NCC(=O)N[C@@H](CC(C)C)C(=O)N[C@@H](CO)C(=O)N[C@@H](CO)C(=O)O)[C@@H](C)O` [MSJ3, MSTGLSS] (H-MSTGLSS-OH), for which the Kd was determined as 25 µM.

As for `CC(C)C[C@H](NC(=O)[C@H](CCCCN)NC(=O)[C@@H](N)CC(C)C)C(=O)NCC(=O)N[C@@H](CCC(=O)O)C(=O)N[C@@H](CCCCN)C(=O)N[C@@H](Cc1c[nH]c2ccccc12)C(=O)O` [MSJ6, LKLGEKW] (H-LKLGEKW-OH), the dissociation constant Kd turned out to be 62 µM.

On to `N=C(N)NCCC[C@H](NC(=O)[C@H](CC(N)=O)NC(=O)[C@H](Cc1ccccc1)NC(=O)[C@H](CO)NC(=O)[C@H](CO)NC(=O)[C@H](Cc1ccc(O)cc1)NC(=O)CN)C(=O)O` [MSJ11, GYSSFNR] (H-GYSSFNR-OH), for which the dissociation constant (Kd) was 61 µM.

Values taken from KR20180060184A, “Ccsp-2와 특이적으로 결합하는 펩타이드 및 이의 용도” (재단법인 아산사회복지재단, priority 2016, dated 2018).
